According to patent US6858591B2, “Antibiotic AA 896 analogs” (Wyeth Holdings Corporation, priority 2001, dated 2005):
In brackets after ≈: the same amount, converted by molar mass. Read-outs that look alike come from different tables or passages of the source.

Tests used:
Assay in all cases: In vitro MIC, broth dilution
Type in all cases: cell-based
[1] = tested on: K. pneumoniae GC 4534; conditions: Klebsiella pneumoniae, GC4534
[2] = tested on: M. morganii GC 4531; conditions: Morganella morganii, GC4531
[3] = tested on: S. marcescens GC 4077; conditions: Serratia marcescens, GC4077
[4] = tested on: E. cloacae GC 3783; conditions: Enterobacter cloacae, GC3783
[5] = tested on: E. coli GC 4559; conditions: Escherichia coli, GC4559
[6] = tested on: P. aeruginosa GC 4532; conditions: Pseudomonas aeruginosa, GC4532
[7] = tested on: S. aureus GC 1131; conditions: Staphylococcus aureus, GC1131
Protocol: (§1) The minimum inhibitory concentration (MIC), the lowest concentration of the antibiotic which inhibits growth of the test organism, is determined by the broth dilution method using Muller-Hinton II […] (Baltimore Biological Laboratories) following the recommendations of National Committee for Clinical Laboratory Standards. [Reference for the Methods for dilution antimicrobial susceptibility tests for bacteria that grow aerobically: National Committee for Clinical Laboratory Standards, 1997. Approved standard M7-A National Committee for Clinical Laboratory Standards, Wayne, Pa.] An inoculum level of 5×10^5 CFU/ml, and a range of antibiotic concentrations (64-0.06 μg/ml) is used. The MIC is determined after the microtiter plates are incubated for 18 hours at 35° C. in an ambient air incubator. The test organisms comprise a spectrum of gram-positive bacteria including Staphylococcus sp., Streptococcus sp. and Enterococcus sp. These organisms include recent clinical isolates that are resistant to methicillin, penicillin and vancomycin.

[8] = tested on: S. aureus GC 4536; conditions: Staphylococcus aureus, GC4536
Protocol: as §1

[9] = tested on: CNS GC 4538
Protocol: as §1

[10] = tested on: CNS GC 4537
Protocol: as §1

[11] = tested on: E. faecalis GC 842; conditions: Enterococcus faecalis, GC842
Protocol: as §1

[12] = tested on: S. aureus GC 2216; conditions: Staphylococcus aureus, GC2216
Protocol: as §1

[13] = tested on: CNS GC 4547
Protocol: as §1

[14] = tested on: E. faecalis GC 2242; conditions: Enterococcus faecalis, GC2242
Protocol: as §1

[15] = tested on: E. faecalis GC 4555; conditions: Enterococcus faecalis, GC4555
Protocol: as §1

[16] = tested on: E. coli GC 2203; conditions: Escherichia coli, GC2203
[17] = tested on: E. coli GC 4560; conditions: Escherichia coli, GC4560
[18] = tested on: P. aeruginosa GC 2214; conditions: Pseudomonas aeruginosa, GC2214
[19] = tested on: C. albicans GC 3066; conditions: Candida albicans, GC3066
[20] = tested on: E. coli GC 3226; conditions: Escherichia coli, GC3226
[21] = K. pneumoniae GC 4534, read-out: MIC
[22] = M. morganii GC 4531, read-out: MIC
[23] = S. marcescens GC 4077, read-out: MIC
[24] = E. cloacae GC 3783, read-out: MIC
[25] = P. aeruginosa GC 4532, read-out: MIC
[26] = S. aureus GC 1131, read-out: MIC
[27] = S. aureus GC 4536, read-out: MIC
[28] = E. faecalis GC 842, read-out: MIC
[29] = S. aureus GC 2216, read-out: MIC
[30] = E. faecalis GC 2242, read-out: MIC
[31] = E. faecalis GC 4555, read-out: MIC
[32] = P. aeruginosa GC 2214, read-out: MIC
[33] = C. albicans GC 3066, read-out: MIC

Compound	MIC [1, 21]	MIC [2, 22]	MIC [3, 23]	MIC [4, 24]	MIC ([5]; E. coli GC 4559, read-out: MIC)	MIC [6, 25]	MIC [7, 26]	MIC [8, 27]	MIC ([9]; CNS GC 4538, read-out: MIC)	MIC ([10]; CNS GC 4537, read-out: MIC)	MIC [11, 28]	MIC [12, 29]	MIC ([13]; CNS GC 4547, read-out: MIC)	MIC [14, 30]	MIC [15, 31]	MIC ([16]; E. coli GC 2203, read-out: MIC)	MIC ([17]; E. coli GC 4560, read-out: MIC)	MIC [18, 32]	MIC [19, 33]	MIC ([20]; E. coli GC 3226, read-out: MIC)	also measured
COc1ccc(Cn2c(=O)ccn([C@@H]3OC([C@H](O)[C@H](NCCCNC(=O)[C@@H](NC(=O)OCc4ccccc4)[C@H](C)O)C(=O)OC(C)(C)C)[C@@H](O[Si](C)(C)C(C)(C)C)[C@H]3O[Si](C)(C)C(C)(C)C)c2=O)cc1 (stereo partly drawn) [Example 10, tert-Butyl (5S,12S)-12-[(R)-[(3R,4R,5R)-3,4-bis{[tert-butyl(dimethyl)silyl]oxy}-5-(3-(4-methoxybenzyl)-2,4-dioxo-3,4-dihydro-1(2H)-pyrimidinyl)tetrahydro-2-furanyl](hydroxy)methyl]-5-[(1S)-1-hydroxyethyl]-3,6-dioxo-1-phenyl-2-oxa-4,7,11-triazatridecan-13-oate]																					MIC [1]: > 128 mg/L; MIC [2]: > 128 mg/L; MIC [3]: > 128 mg/L; MIC [4]: > 128 mg/L; MIC [5]: > 128 mg/L; MIC [6]: > 128 mg/L; MIC [7]: > 128 mg/L; MIC [8]: > 128 mg/L; MIC [9]: > 128 mg/L; MIC [10]: > 128 mg/L; MIC [11]: > 128 mg/L; MIC [12]: > 128 mg/L; MIC [13]: > 128 mg/L; MIC [14]: 128 mg/L (≈ 126 µM); MIC [15]: > 128 mg/L; MIC [16]: > 128 mg/L; MIC [17]: > 128 mg/L; MIC [18]: > 128 mg/L; MIC [19]: 128 mg/L (≈ 126 µM); MIC [20]: > 128 mg/L
COc1ccc(Cn2c(=O)ccn([C@@H]3OC([C@H](O)[C@H](NCCCNC(=O)[C@@H](N)[C@H](C)O)C(=O)OC(C)(C)C)[C@@H](O[Si](C)(C)C(C)(C)C)[C@H]3O[Si](C)(C)C(C)(C)C)c2=O)cc1 (stereo partly drawn) [Example 11, tert-Butyl (2S,3R)-2-[(3-{[(2S,3S)-2-amino-3-hydroxybutanoyl]amino}propyl)amino]-3-[(3R,4R,5R)-3,4-bis{[tert-butyl(dimethyl)silyl]oxy}-5-(3-(4-methoxybenzyl)-2,4-dioxo-3,4-dihydro-1(2H)-pyrimidinyl)tetrahydro-2-furanyl]-3-hydroxypropanoate]	> 128 mg/L	> 128 mg/L	> 128 mg/L	> 128 mg/L	> 128 mg/L	> 128 mg/L	8 mg/L (≈ 9.09 µM)	4 mg/L (≈ 4.54 µM)	4 mg/L (≈ 4.54 µM)	4 mg/L (≈ 4.54 µM)	4 mg/L (≈ 4.54 µM)	4 mg/L (≈ 4.54 µM)	8 mg/L (≈ 9.09 µM)	8 mg/L (≈ 9.09 µM)	4 mg/L (≈ 4.54 µM)	> 128 mg/L	> 128 mg/L	128 mg/L (≈ 145 µM)	> 128 mg/L	> 128 mg/L	
COc1ccc(Cn2c(=O)ccn([C@@H]3OC([C@H](O)[C@H](NCCCNC(=O)[C@H](Cc4ccccc4)NC(=O)OCc4ccccc4)C(=O)OC(C)(C)C)[C@@H](O[Si](C)(C)C(C)(C)C)[C@H]3O[Si](C)(C)C(C)(C)C)c2=O)cc1 (stereo partly drawn) [Example 12, tert-Butyl (5S,12S)-5-benzyl-12-[(R)-[(3R,4R,5R)-3,4-bis{[tertbutyl(dimethyl)silyl]oxy}-5-(3-(4-methoxybenzyl)-2,4-dioxo-3,4-dihydro-1(2H)-pyrimidinyl)tetrahydro-2-furanyl](hydroxy)methyl]-3,6-dioxo-1-phenyl-2-oxa-4,7,11-triazatridecan-13-oate]																					MIC [1]: > 128 mg/L; MIC [2]: 128 mg/L (≈ 121 µM); MIC [3]: 128 mg/L (≈ 121 µM); MIC [4]: 128 mg/L (≈ 121 µM); MIC [5]: > 128 mg/L; MIC [6]: 128 mg/L (≈ 121 µM); MIC [7]: > 128 mg/L; MIC [8]: > 128 mg/L; MIC [9]: > 128 mg/L; MIC [10]: > 128 mg/L; MIC [11]: 128 mg/L (≈ 121 µM); MIC [12]: > 128 mg/L; MIC [13]: 128 mg/L (≈ 121 µM); MIC [14]: 128 mg/L (≈ 121 µM); MIC [15]: 128 mg/L (≈ 121 µM); MIC [16]: > 128 mg/L; MIC [17]: 128 mg/L (≈ 121 µM); MIC [18]: 128 mg/L (≈ 121 µM); MIC [19]: 128 mg/L (≈ 121 µM); MIC [20]: > 128 mg/L
COc1ccc(Cn2c(=O)ccn([C@@H]3OC([C@H](O)[C@H](NCCCNC(=O)[C@@H](N)Cc4ccccc4)C(=O)OC(C)(C)C)[C@@H](O[Si](C)(C)C(C)(C)C)[C@H]3O[Si](C)(C)C(C)(C)C)c2=O)cc1 (stereo partly drawn) [Example 13, tert-Butyl (2S,3R)-2-[(3-{[(2S)-2-amino-3-phenylpropanoyl]amino}propyl)amino]-3-[(3R,4R,5R)-3,4-bis{[tert-butyl(dimethyl)silyl]oxy}-5-(3-(4-methoxybenzyl)-2,4-dioxo-3,4-dihydro-1(2H)-pyrimidinyl)tetrahydro-2-furanyl]-3-hydroxypropanoate]	> 128 mg/L	> 128 mg/L	> 128 mg/L	> 128 mg/L	> 128 mg/L	> 128 mg/L	> 128 mg/L	> 128 mg/L	> 128 mg/L	> 128 mg/L	128 mg/L (≈ 138 µM)	> 128 mg/L	> 128 mg/L	16 mg/L (≈ 17.3 µM)	> 128 mg/L	> 128 mg/L	> 128 mg/L	> 128 mg/L	> 128 mg/L	> 128 mg/L	
COc1ccc(Cn2c(=O)ccn([C@@H]3OC([C@H](O)[C@H](NCCCNC(=O)[C@H](C)NC(=O)OCc4ccccc4)C(=O)OC(C)(C)C)[C@@H](O[Si](C)(C)C(C)(C)C)[C@H]3O[Si](C)(C)C(C)(C)C)c2=O)cc1 (stereo partly drawn) [Example 14, tert-Butyl (5S,12S)-12-[(R)-[(3R,4R,5R)-3,4-bis{[tert-butyl(dimethyl)silyl]oxy}-5-(3-(4-methoxybenzyl)-2,4-dioxo-3,4-dihydro-1(2H)-pyrimidinyl)tetrahydro-2-furanyl](hydroxy)methyl]-5-methyl-3,6-dioxo-1-phenyl-2-oxa-4,7,11-triazatridecan-13-oate]	> 128 mg/L	128 mg/L (≈ 130 µM)	> 128 mg/L	> 128 mg/L	> 128 mg/L	128 mg/L (≈ 130 µM)	> 128 mg/L	> 128 mg/L	> 128 mg/L	> 128 mg/L	> 128 mg/L	> 128 mg/L	128 mg/L (≈ 130 µM)	128 mg/L (≈ 130 µM)	128 mg/L (≈ 130 µM)	> 128 mg/L	128 mg/L (≈ 130 µM)	128 mg/L (≈ 130 µM)	128 mg/L (≈ 130 µM)	> 128 mg/L	
COc1ccc(Cn2c(=O)ccn([C@@H]3OC([C@H](O)[C@H](NCCCNC(=O)[C@H](C)N)C(=O)OC(C)(C)C)[C@@H](O[Si](C)(C)C(C)(C)C)[C@H]3O[Si](C)(C)C(C)(C)C)c2=O)cc1 (stereo partly drawn) [Example 15, tert-Butyl (2S,3R)-2-[(3-{[(2S)-2-aminopropanoyl]amino}propyl)amino]-3-[(3R,4R,5R)-3,4-bis{[tert-butyl(dimethyl)silyl]oxy}-5-(3-(4-methoxybenzyl)-2,4-dioxo-3,4-dihydro-1(2H)-pyrimidinyl)tetrahydro-2-furanyl]-3-hydroxypropanoate]	> 128 mg/L	128 mg/L (≈ 151 µM)	> 128 mg/L	> 128 mg/L	> 128 mg/L	> 128 mg/L	4 mg/L (≈ 4.7 µM)	4 mg/L (≈ 4.7 µM)	4 mg/L (≈ 4.7 µM)	4 mg/L (≈ 4.7 µM)	4 mg/L (≈ 4.7 µM)	4 mg/L (≈ 4.7 µM)	8 mg/L (≈ 9.41 µM)	4 mg/L (≈ 4.7 µM)	4 mg/L (≈ 4.7 µM)	> 128 mg/L	8 mg/L (≈ 9.41 µM)	128 mg/L (≈ 151 µM)	64 mg/L (≈ 75.3 µM)	> 128 mg/L	
